From patent US20060235222A1, “Indole-derivative modulators of steroid hormone nuclear receptors” (ELI LILLY AND COMPANY, priority 2003, published 2006)

Legend:
[1] = molecular target: T1, glucocorticoid receptor (Homo sapiens, UniProt P04150); assay: Glucocorticoid Receptor Binding Assay (Method 1), [3H]-dexamethasone competition, A549 cell extract; conditions: 1.86 nM [3H]-dexamethasone, read-out: GR Ki (nM) Method 1
T1 construct: containing 50-200 ug of A549 cell extract and 1.86 nM; host or cells: A549 human lung epithelial cells
T1 sequence (P04150 1-777): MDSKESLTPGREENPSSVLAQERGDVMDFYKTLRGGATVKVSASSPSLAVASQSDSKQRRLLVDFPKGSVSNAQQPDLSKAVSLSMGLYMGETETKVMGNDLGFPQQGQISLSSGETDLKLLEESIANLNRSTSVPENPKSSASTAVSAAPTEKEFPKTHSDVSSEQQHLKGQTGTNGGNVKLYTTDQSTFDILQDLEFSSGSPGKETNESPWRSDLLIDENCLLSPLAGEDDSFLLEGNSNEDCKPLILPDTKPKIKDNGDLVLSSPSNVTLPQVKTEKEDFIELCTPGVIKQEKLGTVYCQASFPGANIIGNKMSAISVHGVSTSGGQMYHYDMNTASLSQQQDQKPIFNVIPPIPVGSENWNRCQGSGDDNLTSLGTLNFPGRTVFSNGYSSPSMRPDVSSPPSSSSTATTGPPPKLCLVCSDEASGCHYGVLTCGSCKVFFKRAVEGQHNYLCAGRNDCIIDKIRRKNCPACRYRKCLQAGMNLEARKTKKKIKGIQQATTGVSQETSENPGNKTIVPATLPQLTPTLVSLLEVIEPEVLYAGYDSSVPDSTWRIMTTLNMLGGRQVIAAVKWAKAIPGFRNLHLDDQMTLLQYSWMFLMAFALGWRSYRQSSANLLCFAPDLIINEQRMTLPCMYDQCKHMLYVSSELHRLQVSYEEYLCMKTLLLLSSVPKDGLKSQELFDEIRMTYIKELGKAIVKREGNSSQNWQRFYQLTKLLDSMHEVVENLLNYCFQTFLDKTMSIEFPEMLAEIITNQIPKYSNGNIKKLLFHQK
Protocol: Glucocorticoid Receptor Binding Assay (Method 1):
A549 human lung epithelial cells (ATCC) are grown at a scale where gram quantity cell pellets are obtained. Harvested cell pellets are washed twice in cold phosphate buffered saline, centrifuged, and resuspended in cold assay binding buffer. The assay binding buffer consists of 10% glycerol, 50 mM Tris-HCl (pH7.2), 75 mM sodium chloride, 1.5 mM magnesium chloride, 1.5 mM EDTA, and 10 mM sodium molybdate. Cell suspensions were lysed via sonication, centrifuged, and the “extract” supernatant is snap frozen and stored at −80 C until needed.
Incubations are carried out at 4 degrees Celsius for 16 hours. After incubation, 70 ul of 3× dextran-coated charcoal solution is added to each reaction, mixed, and incubated for 8 minutes at RT. 3×-dextran-coated charcoal solution consists of 250 ml assay binding buffer, 3.75 g Norit A charcoal (Sigma), and 1.25 g dextran T-70 (Amersham). Charcoal/unbound radioligand complexes are removed by centrifugation of the plate and 140 ul of supernatant from each well is transferred to another 96 well Optiplate (Packard Instruments). 200 ul of Microscint-20 scinillant (Packard Instruments) is added to each well and amount of receptor bound radioligand is determined using Packard Instruments TopCount instrument.

[2] = molecular target: T2, human MR (Homo sapiens, UniProt P08235); assay: Mineralocorticoid Receptor Binding Assay (Method 1), [3H]-aldosterone competition; conditions: 0.5 nM [3H]-aldosterone, human MR expressed in Sf9 cells
T2 construct: The full length human MR gene is cloned from a human kidney or human brain cDNA library; inferred from own knowledge of the pAcHLT vector (N); made in house; host or cells: Sf9 insect cells (baculovirus)
T2 sequence (P08235 1-984): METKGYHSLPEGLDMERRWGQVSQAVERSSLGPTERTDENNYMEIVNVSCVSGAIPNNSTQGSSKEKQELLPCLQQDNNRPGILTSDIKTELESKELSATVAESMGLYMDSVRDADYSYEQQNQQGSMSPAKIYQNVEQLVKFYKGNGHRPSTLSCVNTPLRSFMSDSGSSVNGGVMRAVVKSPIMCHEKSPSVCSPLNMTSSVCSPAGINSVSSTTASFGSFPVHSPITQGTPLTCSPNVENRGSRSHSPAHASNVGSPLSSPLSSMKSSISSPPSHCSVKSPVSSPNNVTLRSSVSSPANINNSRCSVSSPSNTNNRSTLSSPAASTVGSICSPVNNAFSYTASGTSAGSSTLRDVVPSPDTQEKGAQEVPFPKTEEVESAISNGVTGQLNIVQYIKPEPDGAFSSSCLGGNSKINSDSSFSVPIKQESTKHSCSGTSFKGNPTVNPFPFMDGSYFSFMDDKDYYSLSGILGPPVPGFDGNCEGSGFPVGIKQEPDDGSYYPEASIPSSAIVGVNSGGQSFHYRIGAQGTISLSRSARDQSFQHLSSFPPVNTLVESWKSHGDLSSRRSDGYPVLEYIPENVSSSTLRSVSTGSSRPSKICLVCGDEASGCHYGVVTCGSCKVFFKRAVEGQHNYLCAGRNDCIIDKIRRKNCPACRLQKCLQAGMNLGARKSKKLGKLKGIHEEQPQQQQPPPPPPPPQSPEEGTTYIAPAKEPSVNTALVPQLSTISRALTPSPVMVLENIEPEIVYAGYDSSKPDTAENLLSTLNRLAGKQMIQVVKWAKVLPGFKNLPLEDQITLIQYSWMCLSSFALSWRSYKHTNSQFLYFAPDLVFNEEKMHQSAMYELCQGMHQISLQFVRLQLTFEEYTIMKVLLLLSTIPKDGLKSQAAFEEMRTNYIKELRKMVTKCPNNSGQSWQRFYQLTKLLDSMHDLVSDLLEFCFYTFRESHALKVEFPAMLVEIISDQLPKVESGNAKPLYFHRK
Protocol: Mineralocorticoid Receptor Binding Assay (Method 1):
The full length human MR gene is cloned from a human kidney or human brain cDNA library. […] The PCR reaction is performed in a final volume of 50 μl containing about 1 μl of a 50× stock solution of polymerase; about 1 μl of a 50× stock solution of dNTP; about 5 μl of an appropriate PCR buffer; about 1 μl of each primer; about 5 μl of a H. kidney or H. brain cDNA library; and about 36 μl of water. The reaction is allowed to denature for about 30 seconds at 95 degrees Celsius, anneal for about 30 seconds at 55 degrees Celsius, and extend for about 5 minutes at 72 degrees Celsius, the sequence being repeated for a total of about 35 cycles. […] To extract the cDNA product from the agarose gel, the QIAEX II Gel Extraction protocol (QIAGEN, Inc.) is employed according to the manufacturer's instructions. Following extraction, the MR cDNA is cloned into an appropriate cloning vector (Zero Blunt TOPO PCR Cloning Kit (Invitrogen, Inc.) and a pAcHLT-baculovirus transfer vector (B.D./Pharminogen), then expressed in SF9 insect cells, essentially according to manufacturer's instructions. Sf9 cells are grown at a scale where gram quantity cell pellets are obtained for subsequent use in the MR binding assay. Harvested cell pellets are lysed by repeated freeze-thaw cycles (about 4) in a suitable lysis buffer then centrifuged at about 1×10^3 G (with the supernatant being saved for future assays).
MR binding assays are performed in a final total volume of about 250 μl containing about 20-25 μg of protein and 0.5 nM of [^3H]-aldosterone plus varying concentrations of test compound or vehicle. The assay binding buffer consists of 30 mM sodium molybdate, 30 mM of TRIS-HCl, 5 mM sodium phosphate, 5 mM sodium pyrophosphate, and about 10% glycerol, pH=7.5.
Incubations are carried out at 4 degrees Celsius with shaking for about 16 hours. 200 μl aliquots of each incubation are filtered onto Millipore HA 0.45 micron 96-well filter plates, pre-moistened with cold 30 mM TRIS-HCl. The filter plates are suctioned dry with vacuum and immediately washed 3× with cold 30 mM TRIS-HCl. The plates are then punched out and the amount of receptor-ligand complex is determined by liquid scintillation counting using 4 ml of Ready Protein Plus™ liquid scintillation cocktail.

**Q.** Which results are given for `CCCC(C)(c1ccsc1)c1c[nH]c2c(NS(C)(=O)=O)cccc12` (stereo not drawn) [Example 10, N-[3-(1-Methyl-1-thiophen-3-yl-butyl)-1H-indol-7-yl]-methanesulfonamide]?
**A.** Ki [1]: < 500 nM; Ki [2]: < 500 nM

**Q.** For `CCCC(C)(c1ccc(OC)cc1)c1c[nH]c2c(CC)cccc12` (stereo not drawn) [Example 19, 7-Ethyl-3-[1-(4-methoxy-phenyl)-1-methyl-butyl]-1H-indole], which Ki [1] is on record?
**A.** < 500 nM

**Q.** And the Ki [2]?
**A.** < 500 nM

**Q.** Which Ki [1] does the source give for `CCCCC(C)(c1ccc(OC)cc1)c1c[nH]c2c(C)cccc12` (stereo not drawn) [Example 23, 3-[1-(4-Methoxy-phenyl)-1-methyl-pentyl]-7-methyl-1H-indole] here?
**A.** < 500 nM

**Q.** What about the Ki [2] of the same compound?
**A.** < 500 nM

**Q.** Which Ki [1] does the source give for `CCCC(C)(c1ccc(OC)cc1)c1c[nH]c2c(N)cccc12` (stereo not drawn) [Example 50, 3-[1-(4-Methoxy-phenyl)-1-methyl-butyl]-1H-indol-7-ylamine] here?
**A.** < 500 nM

**Q.** What about the Ki [2] of the same compound?
**A.** < 500 nM

**Q.** `CC(c1ccc(F)cc1)(c1c[nH]c2c(NS(C)(=O)=O)cccc12)C1CC1` (stereo not drawn) [Example 5, N-{3-[1-Cyclopropyl-1-(4-fluoro-phenyl)-ethyl]-1H-indol-7-yl}-methanesulfonamide] was tested. Which Ki [1] did it give?
**A.** < 500 nM

**Q.** What about the Ki [2] of the same compound?
**A.** < 500 nM

**Q.** With `CCC(CC)(c1ccc([S@+](C)[O-])cc1)c1c[nH]c2c(NS(C)(=O)=O)cccc12` (stereo in doubt) [Example 49, N-{3-[1-Ethyl-1-(4-methanesulfinyl-phenyl)-propyl]-1H-indol-7-yl}-methanesulfonamide] as the compound, how does the Ki [1] read?
**A.** < 500 nM

**Q.** And the Ki [2]?
**A.** < 500 nM

**Q.** What does the source list for `CCC(CC)(c1ccc(SC)cc1)c1c[nH]c2c(NS(C)(=O)=O)cccc12` [Example 8, N-{3-[1-Ethyl-1-(4-methylsulfanyl-phenyl)-propyl]-1H-indol-7-yl}-methanesulfonamide]?
**A.** Ki [1]: < 500 nM; Ki [2]: < 500 nM

**Q.** How did the Ki [1] turn out when `CCCC(C)(c1cccc(OC)c1)c1c[nH]c2c(N)cccc12` (stereo not drawn) [Example 38, 3-[1-(3-Methoxy-phenyl)-1-methyl-butyl]-1H-indol-7-ylamine] was run?
**A.** < 1000 nM

**Q.** What about the Ki [2] of the same compound?
**A.** < 500 nM

**Q.** `CCc1cccc2c(C(C)(c3ccccc3)c3ccc(OC)cc3)c[nH]c12` (stereo not drawn) [Example 25] was tested. Which Ki [1] did it give?
**A.** < 500 nM

**Q.** And the Ki [2]?
**A.** < 500 nM

**Q.** For `CCC(CC)(c1ccc(C)cc1F)c1c[nH]c2c(NS(C)(=O)=O)cccc12` [Example 57, N-{3-[1-Ethyl-1-(2-fluoro-4-methyl-phenyl)-propyl]-1H-indol-7-yl}-methanesulfonamide], which Ki [1] is on record?
**A.** < 500 nM

**Q.** And the Ki [2]?
**A.** < 500 nM

**Q.** How did the Ki [1] turn out when `CCCC(C)(c1ccccc1OC)c1c[nH]c2c(NS(C)(=O)=O)cccc12` (stereo not drawn) [Example 44, N-{3-[1-(2-Methoxy-phenyl)-1-methyl-butyl]-1H-indol-7-yl}-methanesulfonamide] was run?
**A.** < 500 nM

**Q.** What about the Ki [2] of the same compound?
**A.** < 500 nM

**Q.** Which results are given for `CCC(CC)(c1ccccc1F)c1c[nH]c2c(NS(C)(=O)=O)cccc12` [Example 68, N-{3-[1-Ethyl-1-(2-fluoro-phenyl)-propyl]-1H-indol-7-yl}-methanesulfonamide]?
**A.** Ki [1]: < 500 nM; Ki [2]: < 500 nM

**Q.** Which Ki [1] does the source give for `O=C(O)Cn1cc(C(c2ccccc2)(c2ccccc2)c2ccccc2)c2ccccc21` [Example 51, (3-Trityl-indol-1-yl)-acetic acid] here?
**A.** < 10000 nM

**Q.** And the Ki [2]?
**A.** < 1000 nM

**Q.** With `CCCC(C)(c1ccccc1)c1c[nH]c2c(C)cccc12` (stereo not drawn) [Example 37, 7-Methyl-3-(1-methyl-1-phenyl-butyl)-1H-indole] as the compound, how does the Ki [1] read?
**A.** < 500 nM

**Q.** What about the Ki [2] of the same compound?
**A.** < 500 nM

**Q.** How did the Ki [1] turn out when `Cc1ccc(C(C)(C)c2c[nH]c3c(N)cccc23)cc1` [Example 41, 3-(1-Methyl-1-p-tolyl-ethyl)-1H-indol-7-ylamine] was run?
**A.** < 10000 nM

**Q.** What about the Ki [2] of the same compound?
**A.** < 1000 nM

**Q.** `CCC(CC)(c1cccc(C)c1)c1c[nH]c2c(NS(C)(=O)=O)cccc12` [Example 71, N-[3-(1-Ethyl-1-m-tolyl-propyl)-1H-indol-7-yl]-methanesulfonamide] was tested. Which Ki [1] did it give?
**A.** < 500 nM

**Q.** And the Ki [2]?
**A.** < 500 nM

**Q.** With `COc1ccc(C(C)(c2ccccc2)c2c[nH]c3c(C)cccc23)cc1` (stereo not drawn) [Example 28, 3-[1-(4-Methoxy-phenyl)-1-phenyl-ethyl]-7-methyl-1H-indole] as the compound, how does the Ki [1] read?
**A.** < 1000 nM

**Q.** And the Ki [2]?
**A.** < 500 nM

**Q.** `CCCC(C)(c1ccc(OC)cc1)c1c[nH]c2c(NS(C)(=O)=O)cccc12` (stereo not drawn) [Example 45, N-{3-[1-(4-Methoxy-phenyl)-1-methyl-butyl]-1H-indol-7-yl}-methanesulfonamide] was tested. Which Ki [1] did it give?
**A.** < 500 nM

**Q.** And the Ki [2]?
**A.** < 500 nM

**Q.** Which results are given for `CCCC(C)(c1ccc(OC(F)(F)F)cc1)c1c[nH]c2c(N)cccc12` (stereo not drawn) [Example 35]?
**A.** Ki [1]: < 10000 nM; Ki [2]: < 500 nM

**Q.** What does the source list for `COc1ccc(C(C)(c2c[nH]c3c(C)cccc23)C2CC2)cc1` (stereo not drawn) [Example 24, 3-[1-Cyclopropyl-1-(4-methoxy-phenyl)-ethyl]-7-methyl-1H-indole]?
**A.** Ki [1]: < 500 nM; Ki [2]: < 500 nM

**Q.** `CCCC(C)(c1ccc(F)cc1)c1c[nH]c2c(C)cccc12` (stereo not drawn) [Example 26, 3-[1-(4-Fluoro-phenyl)-1-methyl-butyl]-7-methyl-1H-indole] was tested. Which Ki [1] did it give?
**A.** < 500 nM

**Q.** What about the Ki [2] of the same compound?
**A.** < 500 nM
